Measured values as given in patent US4289645A (priority 1980, dated 1981).
Where “and” joins values, the source holds several entries; their conditions need not be identical. Identical values can stand only once. Like-named read-outs stand apart in the source and are kept apart here.

Legend:
[1] = Test for identification of mu-amines compatible with hydroquinone (Example 6); assay type: physicochemical; set-up: key: An asterisk (*) in a column indicates a positive result; settings: for Step 4: Possible mu-Amine / Step 4: Not mu-Amine: 10 g amine, 10 g hydroquinone, 80 g water; for Step 4: Possible mu-Amine: no precipitate after 3 min stirring; for Step 6: Possible mu-Amine: passes unhindered through 5 micron filter; for Step 4: Not mu-Amine: precipitation after 3 min stirring
Source text: The steps of this test are as follows:
Step 1: To a 1 pint glass jar which can be equipped with a cover lid add 80.0 grams of demineralized water and 10.0 grams of the amine to be tested.
Step 2: Stir the contents of the jar for one minute, preferably via a magnetic stirrer. If the amine is a solid, stir until complete dissolution into the water is attained.
Step 4: Stir the contents of the jar for three minutes. If precipitation within the jar occurs, then the amine is not a mu-amine. If no precipitate formation within the jar is evident, the amine may possibly be a mu-amine, so proceed to Step 5.
Step 5: Seal the jar and stir vigorously for seven minutes.
Step 6: After stirring, filter the contents of the jar through a 5 micron filter paper via suction. […] If the contents of the jar pass unhindered through the filter paper, the amine may possibly be a mu-amine and Steps 7 and 8 should be performed.
Step 7: Remove a 1.0 ml aliquot from the filtration flask or receiver (i.e., an aliquot of the former jar contents) with a syringe.
Step 8: Inject the contents of the syringe into the room temperature oxygen scavenger apparatus described in Example 4 above which contains air-saturated, demineralized water and sufficient sodium hydroxide to result in a pH 9-10 range in the reaction flask. If at least 70% of the dissolved oxygen initially present in the air-saturated water is removed within one minute after injection, the amine is definitely a mu-amine. If at least 70% of the dissolved oxygen is not removed within one minute, then the amine is not a mu-amine.
Reported below in Table 7 are the results of tests using the above described procedure for various amines. An asterisk (*) in a column indicates a positive result.

[2] = Oxygen scavenging of hydroquinone/mu-amine in hot water flow system (Example 8); settings: Table 10; 6.7 ppm hydroquinone + 6.7 ppm mu-amine, 78±1 °C, 3-5 psig, 240±10 s, pH 9.7
Source text: The specific experimental conditions were:
Reaction Time=240±10 seconds
The initial oxygen levels are reported as parts per billion (ppb).

[3] = Compatibility of amines with hydroquinone in solution (description); assay type: physicochemical
Source text: To provide convenient single-drum treatments, it was decided to test-formulate various dioxo aromatic compounds with neutralizing amines.

[4] = cited from earlier work; for % O2 Removed: Table 1, 78±3 °C, 4±1 psig, about 4 min, feedwater 58-100 ppm, initial O2 1.8-2.3 ppm; for oxygen scavenging in the test water: conclusion from Table 1
[5] = Oxygen scavenging of hydroquinone/mu-amine, ambient temperature (Example 7); settings: Table 8; 60 seconds, 23-25 °C, 103 ppm hydroquinone + 103 ppm mu-amine
Description: The flask was filled with deionized water which had been stripped of some dissolved oxygen by bubbling nitrogen through a diffuser stone. The pH was adjusted to the desired level with sodium hydroxide. The flask was sealed with a rubber septum, the dissolved oxygen probe and the pH electrode. A magnetic stirrer bar was left in the flask for mixing. The mixer was turned on, and dissolved oxygen and temperature readings were recorded until the dissolved oxygen reached a constant value. Next, the appropriate quantity of additive was injected through the septum using a hypodermic syringe. The initial mole ratio of treatment to dissolved oxygen was determined by weighing feed chemical and measuring the oxygen concentration. […] Dissolved oxygen and temperature readings were then taken at appropriate time intervals.
Using the same apparatus and procedure as described in Example 4 above, oxygen scavenging experiments were performed by injecting 1 ml of stock solution into a glass vessel containing 1070 ml of air-saturated, demineralized water adjusted to the appropriate pH with 7 N sodium hydroxide. The results of these tests are given in Table 8 below in terms of % oxygen removal at 60 seconds. […] The final pH values indicated are for the test water.

[6] = for mu-amine required to effect dissolution: added to saturated aqueous hydroquinone (10.0 g hydroquinone, 89.5 g water)
Description: Volumes of mu-amines required to effect dissolution were recorded and converted to weights via density.

[7] = Oxygen scavenging at various concentrations and weight ratios of hydroquinone and mu-amine (Example 9)
Description: Using the same apparatus and procedure as described in Example 4 above, oxygen scavenging experiments were performed by injecting 1 ml of stock solution into a glass vessel containing 1070 ml of air-saturated, demineralized water adjusted to the appropriate pH with 7 N sodium hydroxide. […] The final pH values indicated are for the test water.
(§1) The stock solution concentrations are presented in terms of weight % aqueous. The stock solutions were each 100 grams total. […] The tests were conducted at ambient temperature (23°-25° C.).

[8] = high pressures; cited from earlier work
[9] = Dissolution and storage stability of hydroquinone/methoxypropylamine solutions (Example 11); assay type: physicochemical
Description: The following 25 gram solutions were prepared and sealed in glass bottles (components listed in order of addition):
Fifty (50) grams of each of the following solutions were prepared in glass bottles, sealed and placed on a shaker for two hours: […]

[10] = for % O2 Removed: 60 s
Description: as §1
The tests were conducted at ambient temperature (23°-25° C.).

[11] = cited from earlier work
rats = settings: conclusion from Table 4; cited from earlier work
[12] = cited from earlier work; for % O2 Removed, 1 Minute: hydroquinone: pH 8.6, 22.5 °C, 0.94 mole/mole O2
[13] = conclusion from Table 6; cited from earlier work
[14] = hydroquinone alone in water; cited from earlier work
[15] = cited from earlier work; remark: listed apart in the source
[16] = Thermal stability of amines (description); assay type: physicochemical; settings: of the amines tested
[17] = 1.5% mu-amine, 10.0% hydroquinone (6.67:1)
[18] = 90.0% mu-amine, 10.0% hydroquinone (1:9)
[19] = hydrazine: pH 9.2, 26.5 °C, 10.5 mole/mole O2

## CC(O)CN (stereo not drawn) [Monoisopropanolamine]
[1]
  Step 4: Possible mu-Amine: *
  Step 6: Possible mu-Amine: *
[2]
  % O2 Removed: 98%

## CC(C)(C)N [tert-Butylamine, reference compound]
[1]
  Step 4: Not mu-Amine: *
[3]
  compatibility with hydroquinone in solution: insoluble mass

## Nc1ccccc1N [o-phenylenediamine]
[4]
  % O2 Removed: 10%
  oxygen scavenging in the test water: ineffective

## CN(C)CCCN [Dimethylaminopropylamine]
[1]
  Step 4: Possible mu-Amine: *
  Step 6: Possible mu-Amine: *
[5]
  % O2 Removed: 76%
[6]
  mu-amine required to effect dissolution: 1.7 grams
[7]; [17]
  % O2 Removed At 60 Seconds: 94%
[7]; 30.0% mu-amine, 10.0% hydroquinone (1:3)
  % O2 Removed At 60 Seconds: 99%
[7]; [18]
  % O2 Removed At 60 Seconds: 98%

## Nc1ccc(N)cc1 [p-phenylenediamine]
[4]
  % O2 Removed: 35%
  oxygen scavenging in the test water: ineffective

## O=S([O-])[O-].[Na+].[Na+] [sodium sulfite]
[8]
  decomposition in the boiler: decomposes in the boiler to form sulfur dioxide and hydrogen sulfide

## C1COCCN1 [Morpholine, reference compound]
[1]
  Step 4: Not mu-Amine: *
[3]
  compatibility with hydroquinone in solution: precipitated out of solution

## Oc1ccc(O)cc1 [hydroquinone]
[9]; 1 to 1 with methoxypropylamine, sealed storage 12 days
  active hydroquinone concentration attainable in stable aqueous solution: up to 40%
[6]; 6.3 g hydroquinone in 89.5 g demineralized water, solutions #1, #2, #3
  Dissolution time: 23 min and 19 min and 21 min
[6]; 10.0 g hydroquinone in neat MOPA
  MOPA required to dissolve hydroquinone: 12.5 grams
[4]
  % O2 Removed: 97%
  oxygen scavenging in the test water: at least equivalent to, if not better than, hydrazine
[10]; 0 methoxypropylamine, 1.0% hydroquinone
  % O2 Removed: 9%
[10]; 0 methoxypropylamine, 3.0% hydroquinone
  % O2 Removed: 17%
[10]; 0 methoxypropylamine, 6.0% hydroquinone
  % O2 Removed: 27%
[10]; 1.0% methoxypropylamine, 1.0% hydroquinone
  % O2 Removed: 10%
[10]; 1.0% methoxypropylamine, 6.0% hydroquinone
  % O2 Removed: 78%
[10]; 3.0% methoxypropylamine, 3.0% hydroquinone
  % O2 Removed: 74%
[10]; 6.0% methoxypropylamine, 1.0% hydroquinone
  % O2 Removed: 17%
[10]; 6.0% methoxypropylamine, 6.0% hydroquinone
  % O2 Removed: 93%
[10]; conclusion from Table 12
  effect of mu-amine addition on oxygen scavenging efficacy: increases the oxygen scavenging efficacy
[11]; 1.9 ppm actives, pH 8.4, steam load 15, initial O2 8.0 ppb
  % O2 Removed: 88%
[11]; 1.9 ppm actives, pH 8.4, steam load 15, initial O2 10.0 ppb
  % O2 Removed: 90%
[11]; conclusion from Tables 2 and 3
  efficacy in treating boiler feedwater: efficacious in treating boiler feedwater and compared favorably with hydrazine
rats
  toxicity versus hydrazine: significantly less toxic as compared to hydrazine
[12]; conclusion from Table 5
  reactivity at low temperature with oxygen versus hydrazine: superiority of hydroquinone, as compared to hydrazine
[12]; [19]
  % O2 Removed, 1 Minute: 29%
[13]
  thermal stability versus hydrazine: superior thermal stability
[14]
  aqueous hydroquinone solubility: about 7%

## NN [hydrazine]
[11]; control run 1: 1.6 ppm, pH 8.8, steam load 11, initial O2 13.0 ppb
  % O2 Removed: 69%
[11]; control run 2: 1.1 ppm, pH 9.4, steam load 15, initial O2 4.0 ppb
  % O2 Removed: 50%
[11]; control run 3: 1.2 ppm, pH 8.6, steam load 15, initial O2 6.0 ppb
  % O2 Removed: 60%
[11]; control run 4: 1.0 ppm, pH 8.8, steam load 15, initial O2 5.8 ppb
  % O2 Removed: 55%
[11]; control run 5: 0.8 ppm, pH 9.4, steam load 11, initial O2 3.5 ppb
  % O2 Removed: 31%
[11]; control run 6: 1.6 ppm, pH 9.6, steam load 14, initial O2 4.0 ppb
  % O2 Removed: 30%
[12]; [19]
  % O2 Removed, 5 Minutes: 2%
  % O2 Removed, 1 Minute: 1%
[15]; in solution, Cohn and Powell 1954
  pH of maximum oxygen scavenging efficacy: 10.0-10.5
[15]; low temperatures such as room temperature
  rate of reaction with oxygen: very slow

## C1CN2CCN1CC2 [Triethylenediamine, reference compound]
[1]
  Step 4: Not mu-Amine: *

## NCCO [Monoethanolamine]
[1]
  Step 4: Possible mu-Amine: *
  Step 6: Possible mu-Amine: *
[5]
  % O2 Removed: 75%

## NCCNCCNCCN [Triethylenetetramine]
[1]
  Step 4: Possible mu-Amine: *
  Step 6: Possible mu-Amine: *
[5]
  % O2 Removed: 89%

## NCCN [Ethylenediamine]
[1]
  Step 4: Possible mu-Amine: *
  Step 6: Possible mu-Amine: *
[5]
  % O2 Removed: 85%

## CCC(C)N (stereo not drawn) [sec-Butylamine]
[1]
  Step 4: Possible mu-Amine: *
  Step 6: Possible mu-Amine: *
[5]
  % O2 Removed: 74%
[3]
  compatibility with hydroquinone in solution: compatible with hydroquinone in solution

## Oc1cccc(O)c1 [resorcinol]
[4]
  % O2 Removed: 0%
  oxygen scavenging in the test water: ineffective

## COCCCN [Methoxypropylamine]
[1]
  Step 4: Possible mu-Amine: *
  Step 6: Possible mu-Amine: *
[9]; aqueous 10% hydroquinone
  lowest practical MOPA concentration in the mixture: 2%
[6]
  mu-amine required to effect dissolution: 1.7 grams
[16]
  thermal stability: most thermally stable
[2]
  % O2 Removed: 99%
[7]; [17]
  % O2 Removed At 60 Seconds: 96%
[7]; 2.0% mu-amine, 10.0% hydroquinone (5:1)
  % O2 Removed At 60 Seconds: 96%
[7]; 3.0% mu-amine, 10.0% hydroquinone (3.33:1)
  % O2 Removed At 60 Seconds: 96%
[7]; 15.0% mu-amine, 15.0% hydroquinone (1:1)
  % O2 Removed At 60 Seconds: 95%
[7]; 20.0% mu-amine, 20.0% hydroquinone (1:1)
  % O2 Removed At 60 Seconds: 98%
[7]; 30.0% mu-amine, 30.0% hydroquinone (1:1)
  % O2 Removed At 60 Seconds: 98%
[7]; 40.0% mu-amine, 40.0% hydroquinone (1:1)
  % O2 Removed At 60 Seconds: 94%
[7]; [18]
  % O2 Removed At 60 Seconds: 94%

## NC1CCCCC1 [Cyclohexylamine, reference compound]
[1]
  Step 4: Not mu-Amine: *
[3]
  compatibility with hydroquinone in solution: precipitated out of solution

## Dimethyl(iso)propanolamine
[1]
  Step 4: Possible mu-Amine: *
  Step 6: Possible mu-Amine: *
[5]
  % O2 Removed: 73%

## NCCCCCCN [Hexamethylenediamine, reference compound]
[1]
  Step 4: Not mu-Amine: *

## CC(O)CNCC(C)O (stereo not drawn) [Diisopropanolamine]
[1]
  Step 4: Possible mu-Amine: *
  Step 6: Possible mu-Amine: *
[5]
  % O2 Removed: 86%
